The results in this text go back to patent US20240246937A1 (MERCK SHARP & DOHME LLC, priority 2021, published 2024).

Structures are written as SMILES.

In this assay the target is recombinant IL4I1 (Homo sapiens (Human), UniProt Q96RQ9). The assay is described as follows: IL4I1 Enzymatic Assay (Amplex Red/HRP coupled fluorescence detection of H2O2). Conditions: 240 min; recombinant IL4I1, four-hour pre-incubation with compound. It counts as biochemical. An outline of the steps: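 Ten-point, 1:3 compound titrations were fitted by four-parameter sigmoidal regression to give EC50. Resorufin fluorescence (544/590 nm) from Amplex Red/HRP-coupled H2O2 detection was read 120 min after adding 1 mM each aromatic amino acid to 1 nM IL4I1, following a 4 h compound pre-incubation in pH 7.0 Hepes buffer.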
recombinant IL4I1, sequence (Q96RQ9 22-567): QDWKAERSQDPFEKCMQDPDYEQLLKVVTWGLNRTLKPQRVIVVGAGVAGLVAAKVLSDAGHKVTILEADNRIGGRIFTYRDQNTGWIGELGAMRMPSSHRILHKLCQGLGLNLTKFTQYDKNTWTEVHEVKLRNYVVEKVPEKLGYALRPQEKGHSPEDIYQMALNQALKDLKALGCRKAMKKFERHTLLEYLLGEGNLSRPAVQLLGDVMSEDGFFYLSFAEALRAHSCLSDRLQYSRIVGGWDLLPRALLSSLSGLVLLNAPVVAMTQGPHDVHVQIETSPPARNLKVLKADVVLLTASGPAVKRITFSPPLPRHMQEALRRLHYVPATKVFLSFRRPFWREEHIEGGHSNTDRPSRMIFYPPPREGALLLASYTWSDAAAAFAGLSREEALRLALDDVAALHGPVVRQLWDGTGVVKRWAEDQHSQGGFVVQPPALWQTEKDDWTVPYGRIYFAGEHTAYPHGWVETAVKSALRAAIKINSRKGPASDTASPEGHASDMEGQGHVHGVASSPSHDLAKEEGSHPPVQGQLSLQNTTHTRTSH
The EC50 is the midpoint of the concentration-response curve. As for `O=C1C(=O)N(C23CC(C2)C3)CCN1Cc1ccc(-c2ccccc2)nc1` [Example 122, 1-(bicyclo[1.1.1]pentan-1-yl)-4-((6-phenylpyridin-3-yl)methyl)piperazine-2,3-dione], the EC50 is 6 nM.
In the case of `O=C1C(=O)N(C2CCC2)CCN1Cc1cnc(-c2ccccc2)c(F)c1` [Example 123, 1-cyclobutyl-4-((5-fluoro-6-phenylpyridin-3-yl)methyl)piperazine-2,3-dione], the EC50 was 5 nM.
Regarding `O=c1c(=O)n(C2CCCC2)ccn1Cc1nnc(-c2ccccc2)s1` [Example 124, 1-cyclopentyl-4-((5-phenyl-1,3,4-thiadiazol-2-yl)methyl)-1,4-dihydropyrazine-2,3-dione], the EC50 came to 7 nM.
For `O=c1c(=O)n([C@H]2C[C@H]3C[C@H]3C2)ccn1Cc1cnc(-c2ccccc2)cn1` [Example 125] the value was 3 nM.
The result for `O=c1c(=O)n(C2CCCC2)ccn1Cc1cnc(-c2ccccc2)cn1` [Example 126, 1-cyclopentyl-4-((5-phenylpyrazin-2-yl)methyl)-1,4-dihydropyrazine-2,3-dione] reads 3 nM; that for `O=c1c(=O)n(C2CCC2)ccn1Cc1cnc(-c2ccccc2)cn1` [Example 127, 1-cyclobutyl-4-((5-phenylpyrazin-2-yl)methyl)-1,4-dihydropyrazine-2,3-dione], 3 nM.
The result for `O=c1c(=O)n([C@H]2C[C@H]3C[C@H]3C2)ccn1Cc1cnc(-c2ccccc2)c(F)c1` [Example 128, 1-((cis)-bicyclo[3.1.0]hexan-3-yl)-4-((5-fluoro-6-phenylpyridin-3-yl)methyl)-1,4-dihydropyrazine-2,3-dione] reads 2 nM; that for `O=C1C(=O)N([C@H]2C[C@H]3C[C@H]3C2)CCN1Cc1cnc(-c2ccccc2)cn1` [Example 129, 1-((cis)-bicyclo[3.1.0]hexan-3-yl)-4-((5-phenylpyrazin-2-yl)methyl)piperazine-2,3-dione], 6 nM.
Regarding `O=c1c(=O)n(C2CCC2)ccn1Cc1cnc(-c2ccccc2)nc1` [Example 130, 1-cyclobutyl-4-((2-phenylpyrimidin-5-yl)methyl)-1,4-dihydropyrazine-2,3-dione], the half-maximal effective concentration (EC50) is 5 nM.
For the compound `O=C1C(=O)N([C@H]2C[C@H]3C[C@H]3C2)CCN1Cc1cnc(-c2ccccc2)c(F)c1` [Example 131, 1-((cis)-bicyclo[3.1.0]hexan-3-yl)-4-((5-fluoro-6-phenylpyridin-3-yl)methyl)piperazine-2,3-dione], the EC50 was determined as 9 nM.
As for `O=C1C(=O)N(C2CCCC2)CCN1CC12CC(c3ccccc3)(C1)C2` [Example 132, 1-cyclopentyl-4-((3-phenylbicyclo[1.1.1]pentan-1-yl)methyl)piperazine-2,3-dione], the EC50 turned out to be 15 nM.
On to `O=C1C(=O)N(C2CCC2)CCN1Cc1nnc(-c2ccccc2)s1` [Example 135, 1-cyclobutyl-4-((5-phenyl-1,3,4-thiadiazol-2-yl)methyl)piperazine-2,3-dione], for which the EC50 came out at 6 nM.
The result for `O=C1C(=O)N(C2CCC2)CCN1Cc1ccc(-n2nccn2)cn1` [Example 136, 1-((5-(2H-1,2,3-triazol-2-yl)pyridin-2-yl)methyl)-4-cyclobutylpiperazine-2,3-dione] reads 20 nM; that for `O=c1c(=O)n(C2CCC2)ccn1Cc1ccc(-c2ccccc2)nn1` [Example 137, 1-cyclobutyl-4-((6-phenylpyridazin-3-yl)methyl)-1,4-dihydropyrazine-2,3-dione], 6 nM.
For the compound `O=C1C(=O)N(C2CCC2)CCN1Cc1cc(-c2ccccn2)on1` [Example 138, 1-cyclobutyl-4-((5-(pyridin-2-yl)isoxazol-3-yl)methyl)piperazine-2,3-dione], the EC50 was 12 nM.
`O=C1C(=O)N(C2CCCC2)CCN1Cc1ncc(-c2nccs2)cc1F` [Example 139, 1-cyclopentyl-4-((3-fluoro-5-(thiazol-2-yl)pyridin-2-yl)methyl)piperazine-2,3-dione]: the EC50 worked out at 26 nM.
For `O=C1C(=O)N(C2CCCC2)CCN1Cc1ccc(-n2nccn2)cc1` [Example 140, 1-(4-(2H-1,2,3-triazol-2-yl)benzyl)-4-cyclopentylpiperazine-2,3-dione] the value was 36 nM.
The result for `O=C1C(=O)N(C2CC(c3ccccc3)C2)CCN1Cc1ncc(-c2ccccc2)cn1` (stereo not shown) [Example 141, 1-(3-phenylcyclobutyl)-4-((5-phenylpyrimidin-2-yl)methyl)piperazine-2,3-dione] reads 23 nM; that for `O=C1C(=O)N(C2CC(c3ccccc3)C2)CCN1Cc1ccc(-c2ccccc2)nc1` (stereo not shown) [Example 142, 1-(3-phenylcyclobutyl)-4-((6-phenylpyridin-3-yl)methyl)piperazine-2,3-dione], 3 nM; that for `O=c1c(=O)n(C2CCC2)ccn1Cc1ncc(-c2ccccc2)cn1` [Example 143, 1-cyclobutyl-4-((5-phenylpyrimidin-2-yl)methyl)-1,4-dihydropyrazine-2,3-dione], 15 nM.
The result for `O=c1c(=O)n(C23CC(C2)C3)ccn1Cc1nnc(-c2cccc(F)c2)s1` [Example 144, 1-(bicyclo[1.1.1]pentan-1-yl)-4-((5-(3-fluorophenyl)-1,3,4-thiadiazol-2-yl)methyl)-1,4-dihydropyrazine-2,3-dione] reads 2 nM.
For `O=c1c(=O)n(C2CCCC2)ccn1Cc1nnc(-c2cccc(F)c2)s1` [Example 145, 1-cyclopentyl-4-((5-(3-fluorophenyl)-1,3,4-thiadiazol-2-yl)methyl)-1,4-dihydropyrazine-2,3-dione], the EC50 was found to be 1 nM.
The result for `O=C1C(=O)N(C23CC(C2)C3)CCN1Cc1cc(-c2ccccc2)on1` [Example 146, 1-(bicyclo[1.1.1]pentan-1-yl)-4-((5-phenylisoxazol-3-yl)methyl)piperazine-2,3-dione] reads 3 nM; that for `O=c1c(=O)n(C23CC(C2)C3)ccn1Cc1cc(-c2ccccc2)on1` [Example 147, 1-(bicyclo[1.1.1]pentan-1-yl)-4-((5-phenylisoxazol-3-yl)methyl)-1,4-dihydropyrazine-2,3-dione], 2 nM.
The result for `O=C1C(=O)N(C2CCC2)CCN1Cc1cc(-c2ccccc2)no1` [Example 148, 1-cyclobutyl-4-((3-phenylisoxazol-5-yl)methyl)piperazine-2,3-dione] reads 2 nM; that for `O=C1C(=O)N(C2CCC2)CCN1Cc1cc(-c2ccccc2F)no1` [Example 149, 1-cyclobutyl-4-((3-(2-fluorophenyl)isoxazol-5-yl)methyl)piperazine-2,3-dione], 3 nM; that for `O=C1C(=O)N(C2CCC2)CCN1Cc1cc(-c2ccc(F)cc2)no1` [Example 150, 1-cyclobutyl-4-((3-(4-fluorophenyl)isoxazol-5-yl)methyl)piperazine-2,3-dione], 3 nM.
For `O=c1c(=O)n(C2CCC2)ccn1Cc1cc(-c2ccccc2)no1` [Example 151, 1-cyclobutyl-4-((3-phenylisoxazol-5-yl)methyl)-1,4-dihydropyrazine-2,3-dione], the EC50 stood at 1 nM.
For `O=c1c(=O)n(C2CCC2)ccn1Cc1cc(-c2ccccc2F)no1` [Example 152, 1-cyclobutyl-4-((3-(2-fluorophenyl)isoxazol-5-yl)methyl)-1,4-dihydropyrazine-2,3-dione] the value was 2 nM; for `O=C1C(=O)N(C2CCCC2)CCN1Cc1cc(-c2cccc(F)c2)no1` [Example 153, 1-cyclopentyl-4-((3-(3-fluorophenyl)isoxazol-5-yl)methyl)piperazine-2,3-dione], 3 nM.
As to `O=C1C(=O)N(C2CCCC2)CCN1Cc1cc(-c2ccccc2F)no1` [Example 154, 1-cyclopentyl-4-((3-(2-fluorophenyl)isoxazol-5-yl)methyl)piperazine-2,3-dione], the EC50 is 3 nM.
Turning to `O=c1c(=O)n(C2CCCC2)ccn1Cc1cc(-c2cccc(F)c2)no1` [Example 155, 1-cyclopentyl-4-((3-(3-fluorophenyl)isoxazol-5-yl)methyl)-1,4-dihydropyrazine-2,3-dione], the half-maximal effective concentration (EC50) is 2 nM.
As for `O=c1c(=O)n(C2CCCC2)ccn1Cc1cc(-c2ccccc2F)no1` [Example 156, 1-cyclopentyl-4-((3-(2-fluorophenyl)isoxazol-5-yl)methyl)-1,4-dihydropyrazine-2,3-dione], the EC50 worked out at 2 nM.
The result for `O=c1c(=O)n(C2CCC2)ccn1Cc1cc(-c2cccc(F)c2)no1` [Example 157, 1-cyclobutyl-4-((3-(3-fluorophenyl)isoxazol-5-yl)methyl)-1,4-dihydropyrazine-2,3-dione] reads 1 nM; that for `O=C1C(=O)N(C2CCC2)CCN1Cc1cc(-c2cccc(F)c2)no1` [Example 158, 1-cyclobutyl-4-((3-(3-fluorophenyl)isoxazol-5-yl)methyl)piperazine-2,3-dione], 4 nM; that for `O=c1c(=O)n(C2CCC2)ccn1Cc1cc(-c2ccc(F)cc2)no1` [Example 159, 1-cyclobutyl-4-((3-(4-fluorophenyl)isoxazol-5-yl)methyl)-1,4-dihydropyrazine-2,3-dione], 1 nM.
The result for `O=c1c(=O)n(C2CCC2)ccn1Cc1cnn(-c2ccccc2)c1` [Example 160, 1-cyclobutyl-4-((1-phenyl-1H-pyrazol-4-yl)methyl)-1,4-dihydropyrazine-2,3-dione] reads 5 nM; that for `O=c1c(=O)n(C2CCC2)ccn1Cc1cc(-c2ccccn2)no1` [Example 161, 1-cyclobutyl-4-((3-(pyridin-2-yl)isoxazol-5-yl)methyl)-1,4-dihydropyrazine-2,3-dione], 5 nM.
For `O=C1C(=O)N(C2CCCC2)CCN1Cc1cc(-c2ccc(F)cc2)no1` [Example 162, 1-cyclopentyl-4-((3-(4-fluorophenyl)isoxazol-5-yl)methyl)piperazine-2,3-dione] the value was 4 nM; for `O=c1c(=O)n(C2CCCC2)ccn1Cc1cc(-c2ccccn2)no1` [Example 163, 1-cyclopentyl-4-((3-(pyridin-2-yl)isoxazol-5-yl)methyl)-1,4-dihydropyrazine-2,3-dione], 6 nM.
